# Laboratory results reported in patent US7183295B2, “PPAR-activating compound and pharmaceutical composition comprising the compound” (Kowa Co., Ltd., priority 2003, dated 2007).
# How the values were obtained:
# Format in all cases: cell-based
# [1] = target: T1, human PPARα (166–467aa) ligand binding domain (Homo sapiens, UniProt Q07869); test: PPAR transfection (Gal4-LBD luciferase reporter) assay, hPPARα; settings: transfected COS-7 cells, 16 hours, luciferase activity; read-out: hPPAR; EC50 α (agonist activity)
# T1 construct: human PPARα (166–467aa); expressed in transfected cells; host or cells: COS-7
# T1 sequence (Q07869 166-467): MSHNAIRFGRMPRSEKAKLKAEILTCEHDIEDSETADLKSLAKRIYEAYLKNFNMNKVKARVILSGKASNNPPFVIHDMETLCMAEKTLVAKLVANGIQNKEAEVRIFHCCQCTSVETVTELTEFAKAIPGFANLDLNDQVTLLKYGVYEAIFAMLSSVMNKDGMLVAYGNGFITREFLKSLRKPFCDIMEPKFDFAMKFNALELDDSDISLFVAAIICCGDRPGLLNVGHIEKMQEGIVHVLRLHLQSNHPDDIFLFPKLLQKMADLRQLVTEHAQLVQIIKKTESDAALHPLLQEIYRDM
# Outline: (§1)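 COS-7 cells transiently co-transfected with Gal4-LBD expression plasmid, firefly luciferase reporter and β-galactosidase control. Compound exposure 16 h in DMEM with 0.2% FCS, 0.1% DMSO final. Luciferase read in lysates, normalized to β-galactosidase activity.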
# [2] = target: T2, human PPARγ (182–505aa) ligand binding domain (Homo sapiens, UniProt P37231); test: PPAR transfection (Gal4-LBD luciferase reporter) assay, hPPARγ; settings: transfected COS-7 cells, 16 hours, luciferase activity; read-out: hPPAR; EC50 γ (agonist activity)
# T2 construct: γ(182–505aa); expressed in transfected cells; host or cells: COS-7
# T2 sequence (P37231 182-505): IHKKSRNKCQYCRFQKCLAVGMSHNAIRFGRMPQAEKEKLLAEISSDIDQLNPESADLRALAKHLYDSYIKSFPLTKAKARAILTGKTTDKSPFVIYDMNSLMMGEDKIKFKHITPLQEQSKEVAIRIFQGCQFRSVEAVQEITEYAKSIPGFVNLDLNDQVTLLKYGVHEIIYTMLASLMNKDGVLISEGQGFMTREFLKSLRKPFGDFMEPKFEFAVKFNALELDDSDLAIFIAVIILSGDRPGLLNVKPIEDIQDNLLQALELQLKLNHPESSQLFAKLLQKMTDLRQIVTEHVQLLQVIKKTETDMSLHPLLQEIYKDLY
# Outline: as §1
# [3] = target: T3, human PPARδ (137–441aa) ligand binding domain (Homo sapiens, UniProt Q03181); test: PPAR transfection (Gal4-LBD luciferase reporter) assay, hPPARδ; settings: transfected COS-7 cells, 16 hours, luciferase activity; read-out: hPPAR; EC50 δ (agonist activity)
# T3 construct: δ (137–441aa); expressed in transfected cells; host or cells: COS-7
# T3 sequence (Q03181 137-441): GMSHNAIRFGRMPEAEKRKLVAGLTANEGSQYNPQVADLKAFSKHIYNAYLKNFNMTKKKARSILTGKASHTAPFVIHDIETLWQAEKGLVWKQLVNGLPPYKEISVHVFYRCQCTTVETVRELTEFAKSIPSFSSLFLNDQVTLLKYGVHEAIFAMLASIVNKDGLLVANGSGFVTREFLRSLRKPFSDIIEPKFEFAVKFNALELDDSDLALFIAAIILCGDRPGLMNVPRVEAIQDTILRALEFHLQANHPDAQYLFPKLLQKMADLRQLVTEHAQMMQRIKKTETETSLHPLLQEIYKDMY
# Outline: as §1
SMILES,EC50 [1] [nM],EC50 [2] [nM],EC50 [3] [nM]
CC(Oc1cccc(CN(CCOc2ccc(F)cc2)c2nc3ccccc3o2)c1)C(=O)O (stereo not drawn) [Example 186],20,5500,10000
COc1ccc(OCCCN(Cc2cccc(OC(C)C(=O)O)c2)c2nc3cc(Cl)ccc3o2)cc1 (stereo not drawn) [Example 204],10,1600,1800
COc1ccc2oc(N(CCCOc3ccc(Cl)cc3)Cc3cccc(OC(C)C(=O)O)c3)nc2c1 (stereo not drawn) [Example 206],10,1400,1700
CCC(Oc1cccc(CN(CCOc2ccccc2)c2nc3cc(F)ccc3o2)c1)C(=O)O (stereo not drawn) [Example 229],6,> 10000,1800
CCC(Oc1cccc(CN(CCOc2ccc(OS(C)(=O)=O)cc2)c2nc3ccccc3o2)c1)C(=O)O (stereo not drawn) [Example 231],13,> 10000,> 100000
